The values below come from patent US11147848B2, “Extracts and isolated compounds from Cakile arabica for treatment of ulcer” (KING SAUD UNIVERSITY, priority 2013, dated 2021).

“And” between values parts separate entries of the source, which are not always exact repeats. Identical values can stand only once.

This assay concerns absolute ethanol-induced ulcer. The assay can be described thus: absolute ethanol-induced ulcer model (anti-ulcerogenic activity). To be noted: rats, oral, ranitidine 100 mg/kg, TAE 1000 mg/kg, 1 and 2 50 mg/kg; for score (lesion score): scoring system 0-5; for score (lesion score) / No. of ulcers / ulcer index: n = 6; for No. of ulcers / ulcer index: mean ± SD. Format: in vivo, Wistar rats. The procedure:
Evaluation of the anti-ulcerogenic activity was carried out using absolute ethanol-induced ulcer model as described by Muthu et al. Int. J. Pharm. Pharm. Sci. 2013, 5, Suppl1, 269-272.
About 30 Wistar rats were used, they divided into 5 groups each of 6 rats. Group 1 received the vehicle and served as control group, group 2 received ranitidine (100 mg/kg) and served as standard group, groups 3 received the total alcohol extract of the plant under investigation at a dose of 1000 mg/kg. groups 4 and 5 received the isolated compounds 1 and 2 at dose 50 mg/kg respectively.
Rats of all groups were fasted for 24 h then all medications were administered orally. One hour after treatment, the animals received an oral dose of absolute ethanol (1 ml/200 g) and then sacrificed one hour later, by ether inhalation, the stomachs were rapidly removed, opened along their greater curvature and gently rinsed under running tap water.
Number of lesions in the glandular part of the stomach were measured under an illuminated magnifying microscope (10×). Long lesions were counted and their lengths were measured. Petechial lesions were counted, and then each five petechial lesions were taken as 1 mm of ulcer.
The lesion scores: the mucosal lesions were quantified by the scoring system (0-5) 0=no damage, 1=Local edema and inflammation without ulcers; 2=One ulcer without inflammation; 3=one to two ulcers with inflammation & lesion diameter <1 cm; 4=More than two ulcers with lesion diameter 1-2 cm; 5=Sever ulceration with lesion diameter >2 cm.
Ulcer index To calculate the ulcer index (mm), the sum of the total length of long ulcers and petechial lesions in each group of rats was divided by its number. The curative ratio was determined according to the formula: % Protection of control ulcer=Control UI−Test UI/Control UI×100

Consider `CCCCCCCCCCCCCCCCCCCCCCCC(=O)O` [Compound 1, tetracosanoic acid], for which the “score (lesion score)” value was found to be 1, the “% protection of control ulcer” value came to 80%, the No. of ulcers amounted to 2 ± 2.74 and the ulcer index worked out at 2.6 ± 3.58 mm.

For `CCCCOC(=O)C(O)CCC(=O)O` (stereo not shown) [Compound 2, 4-hydroxy-5-n-butoxy-5-oxopentanoic acid], the “score (lesion score)” value turned out to be 2; the “% protection of control ulcer” value was 55.5% and 55.3%; the No. of ulcers is recorded as 3.6± 2.97; the ulcer index is 5.8 ± 3.42 mm.

In the case of `CNC(=C[N+](=O)[O-])NCCSCc1ccc(CN(C)C)o1` [Ranitidine, ranitidine, reference compound], the “score (lesion score)” value was determined as 2.2, the “% protection of control ulcer” value is on record as 46.2%, the No. of ulcers is 7.2 ± 0.84 and the ulcer index was determined as 7 ± 1.58 mm. Besides, where the note is “listed as ranitidine”, the “% protection of control ulcer” value was 46.2% and 44.6%.
